# Results reported in ChEMBL document CHEMBL4340549, “Design, synthesis and biological evaluation of isochroman-4-one hybrids bearing piperazine moiety as antihypertensive agent candidates” (Bioorg Med Chem, 2019).
# What was measured:
# Thoracic aorta [1] = assay: Vasodilatory activity in Sprague-Dawley rat thoracic aorta assessed as inhibition of noradrenaline-induced contractions at 10 uM relative to untreated control; format: functional
# Thoracic aorta [2] = assay: Vasodilatory activity in Sprague-Dawley rat thoracic aorta assessed as inhibition of noradrenaline-induced contractions at 100 uM relative to untreated control; format: functional
# [3] = molecular target: T1, Alpha-1D adrenergic receptor (Rattus norvegicus, UniProt P23944); assay: Antagonist activity at alpha-1D adrenergic receptor in SPF rat vas thoracic aorta assessed as inhibition of noradrenaline-induced contractions; settings: read-out: pA2 (converted)
# T1 sequence (P23944 whole entry): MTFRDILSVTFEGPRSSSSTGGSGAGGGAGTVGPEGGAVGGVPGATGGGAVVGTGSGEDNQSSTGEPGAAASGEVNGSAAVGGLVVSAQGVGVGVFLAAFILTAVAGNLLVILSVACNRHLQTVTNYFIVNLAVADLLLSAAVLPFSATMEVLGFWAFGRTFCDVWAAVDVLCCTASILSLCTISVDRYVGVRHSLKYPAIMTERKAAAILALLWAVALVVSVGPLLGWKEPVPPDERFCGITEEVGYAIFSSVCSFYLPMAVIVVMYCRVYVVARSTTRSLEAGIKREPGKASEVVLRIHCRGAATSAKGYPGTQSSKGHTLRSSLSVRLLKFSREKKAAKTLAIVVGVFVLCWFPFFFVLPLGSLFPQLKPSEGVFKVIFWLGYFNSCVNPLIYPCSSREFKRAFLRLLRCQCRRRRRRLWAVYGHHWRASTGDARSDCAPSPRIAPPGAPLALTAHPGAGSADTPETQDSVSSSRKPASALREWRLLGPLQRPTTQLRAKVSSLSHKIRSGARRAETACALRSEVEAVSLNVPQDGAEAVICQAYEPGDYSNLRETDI
# Rattus norvegicus [4] = assay: Effect on heart rate in spontaneously hypertensive rat assessed as heart rate level at 80 mg/kg, po measured after 6 hrs by tail-cuff method (reference value: 411.12 +/- 19.1 bpm); format: ADME, organism-based; settings: in vivo
# Rattus norvegicus [5] = assay: Antihypertensive activity in spontaneously hypertensive rat assessed as diastolic arterial pressure at 80 mg/kg, po measured after 6 hrs by tail-cuff method (reference value: 137.54 +/- 9.2 mmHg); format: functional
# Rattus norvegicus [6] = assay: Antihypertensive activity in spontaneously hypertensive rat assessed as mean arterial pressure at 80 mg/kg, po measured after 6 hrs by tail-cuff method (reference value: 151.48 +/- 12.24 mmHg); format: functional
# Rattus norvegicus [7] = assay: Antihypertensive activity in spontaneously hypertensive rat assessed as systolic arterial pressure at 80 mg/kg, po measured after 0 hrs by tail-cuff method (reference value: 186.10 +/- 4.55 mmHg); format: functional
# Rattus norvegicus [8] = assay: Antihypertensive activity in spontaneously hypertensive rat assessed as diastolic arterial pressure at 80 mg/kg, po measured after 0 hrs by tail-cuff method (reference value: 149.50 +/- 5.4 mmHg); format: functional
# Rattus norvegicus [9] = assay: Antihypertensive activity in spontaneously hypertensive rat assessed as mean arterial pressure at 80 mg/kg, po measured after 0 hrs by tail-cuff method (reference value: 161.70 +/- 5.12 mmHg); format: functional
# Rattus norvegicus [10] = assay: Effect on heart rate in spontaneously hypertensive rat assessed as heart rate level at 80 mg/kg, po measured after 0 hrs by tail-cuff method (reference value: 413.17 +/- 10.5 bpm); format: ADME, organism-based; settings: in vivo
# Rattus norvegicus [11] = assay: Antihypertensive activity in spontaneously hypertensive rat assessed as systolic arterial pressure at 80 mg/kg, po measured after 1 hr by tail-cuff method (reference value: 185.35 +/- 10.30 mmHg); format: functional
# Rattus norvegicus [12] = assay: Antihypertensive activity in spontaneously hypertensive rat assessed as diastolic arterial pressure at 80 mg/kg, po measured after 1 hr by tail-cuff method (reference value: 147.33 +/- 9.8 mmHg); format: functional
# Rattus norvegicus [13] = assay: Antihypertensive activity in spontaneously hypertensive rat assessed as mean arterial pressure at 80 mg/kg, po measured after 1 hr by tail-cuff method (reference value: 160 +/- 9.97 mmHg); format: functional
# Rattus norvegicus [14] = assay: Effect on heart rate in spontaneously hypertensive rat assessed as heart rate level at 80 mg/kg, po measured after 1 hr by tail-cuff method (reference value: 415.25 +/- 14.7 bpm); format: ADME, organism-based; settings: in vivo
# Rattus norvegicus [15] = assay: Antihypertensive activity in spontaneously hypertensive rat assessed as systolic arterial pressure at 80 mg/kg, po measured after 2 hrs by tail-cuff method (reference value: 189.20 +/- 12.31 mmHg); format: functional
# Rattus norvegicus [16] = assay: Antihypertensive activity in spontaneously hypertensive rat assessed as diastolic arterial pressure at 80 mg/kg, po measured after 2 hrs by tail-cuff method (reference value: 149.90 +/- 6 mmHg); format: functional
# Rattus norvegicus [17] = assay: Antihypertensive activity in spontaneously hypertensive rat assessed as mean arterial pressure at 80 mg/kg, po measured after 2 hrs by tail-cuff method (reference value: 163 +/- 8.1 mmHg); format: functional
# Rattus norvegicus [18] = assay: Effect on heart rate in spontaneously hypertensive rat assessed as heart rate level at 80 mg/kg, po measured after 2 hrs by tail-cuff method (reference value: 413.2 +/- 15.2 bpm); format: ADME, organism-based; settings: in vivo
# Rattus norvegicus [19] = assay: Antihypertensive activity in spontaneously hypertensive rat assessed as systolic arterial pressure at 80 mg/kg, po measured after 4 hrs by tail-cuff method (reference value: 178.66 +/- 17.18 mmHg); format: functional
# Rattus norvegicus [20] = assay: Antihypertensive activity in spontaneously hypertensive rat assessed as diastolic arterial pressure at 80 mg/kg, po measured after 4 hrs by tail-cuff method (reference value: 136.12 +/- 5.3 mmHg); format: functional
# Rattus norvegicus [21] = assay: Antihypertensive activity in spontaneously hypertensive rat assessed as mean arterial pressure at 80 mg/kg, po measured after 4 hrs by tail-cuff method (reference value: 150.30 +/- 9.26 mmHg); format: functional
# Rattus norvegicus [22] = assay: Effect on heart rate in spontaneously hypertensive rat assessed as heart rate level at 80 mg/kg, po measured after 4 hrs by tail-cuff method (reference value: 410.80 +/- 17.4 bpm); format: ADME, organism-based; settings: in vivo
# Rattus norvegicus [23] = assay: Antihypertensive activity in spontaneously hypertensive rat assessed as systolic arterial pressure at 80 mg/kg, po measured after 6 hrs by tail-cuff method (reference value: 179.36 +/- 18.33 mmHg); format: functional
# Rattus norvegicus [24] = assay: Antihypertensive activity in spontaneously hypertensive rat assessed as systolic arterial pressure at 80 mg/kg, po measured after 8 hrs by tail-cuff method (reference value: 179.42 +/- 13.70 mmHg); format: functional
# Rattus norvegicus [25] = assay: Antihypertensive activity in spontaneously hypertensive rat assessed as diastolic arterial pressure at 80 mg/kg, po measured after 8 hrs by tail-cuff method (reference value: 140.61 +/- 10.3 mmHg); format: functional
# Rattus norvegicus [26] = assay: Antihypertensive activity in spontaneously hypertensive rat assessed as mean arterial pressure at 80 mg/kg, po measured after 8 hrs by tail-cuff method (reference value: 153.55 +/- 11.43 mmHg); format: functional
# Rattus norvegicus [27] = assay: Effect on heart rate in spontaneously hypertensive rat assessed as heart rate level at 80 mg/kg, po measured after 8 hrs by tail-cuff method (reference value: 412.77 +/- 11.3 bpm); format: ADME, organism-based; settings: in vivo
# Rattus norvegicus [28] = assay: Antihypertensive activity in spontaneously hypertensive rat assessed as reduction in mean arterial pressure at 80 mg/kg, po measured after 2 hrs by tail-cuff method; format: functional; parameters: scale not given: the % may be the effect or the level left
structure (smiles),measurement,setting,value
COc1cc2c(cc1OCC(O)CN1CCN(C(=O)c3ccco3)CC1)COC(C)C2=O (stereo not drawn),inhibition at 10 µM,Thoracic aorta [1],17.8%
same,inhibition at 100 µM,Thoracic aorta [2],22.8%
COc1ccc2c(c1OCC(O)CN1CCN(c3ccccc3)CC1)COC(C)C2=O (stereo not drawn),inhibition at 10 µM,Thoracic aorta [1],37.8%
same,inhibition at 100 µM,Thoracic aorta [2],59.7%
same,Kb,[3],296 nM
COc1cc2c(cc1OCC(O)CN1CCN(c3ccccc3OC)CC1)COC(C)C2=O (stereo not drawn),inhibition at 10 µM,Thoracic aorta [1],41.7%
same,inhibition at 100 µM,Thoracic aorta [2],50.4%
same,Kb,[3],2200 nM
COc1ccccc1N1CCN(CC(O)COc2c(OC)ccc3c2COC(C)C3=O)CC1 (stereo not drawn),inhibition at 10 µM,Thoracic aorta [1],13.6%
same,inhibition at 100 µM,Thoracic aorta [2],24.4%
COc1ccc2c(c1OCC(O)CN1CCN(C(=O)C3CCCO3)CC1)COC(C)C2=O (stereo not drawn),inhibition at 10 µM,Thoracic aorta [1],31.4%
same,inhibition at 100 µM,Thoracic aorta [2],45.1%
same,Kb,[3],340 nM
CCOc1ccccc1N1CCN(CC(O)COc2cc3c(cc2OC)C(=O)C(C)OC3)CC1 (stereo not drawn),inhibition at 10 µM,Thoracic aorta [1],11.6%
same,inhibition at 100 µM,Thoracic aorta [2],23.3%
COc1ccccc1N1CCN(CC(O)COc2cccc3ccccc23)CC1 (stereo not drawn) [NAFTOPIDIL],Activity,Rattus norvegicus [4],411.19 bpm
same,Activity,Rattus norvegicus [5],139.57 mmHg
same,Activity,Rattus norvegicus [6],145.79 mmHg
same,inhibition at 10 µM,Thoracic aorta [1],47.5%
same,inhibition at 100 µM,Thoracic aorta [2],65.2%
same,Kb,[3],143 nM
same,Activity,Rattus norvegicus [7],181.92 mmHg
same,Activity,Rattus norvegicus [8],152.14 mmHg
same,Activity,Rattus norvegicus [9],162.07 mmHg
same,Activity,Rattus norvegicus [10],415.15 bpm
same,Activity,Rattus norvegicus [11],161.36 mmHg
same,Activity,Rattus norvegicus [12],140.19 mmHg
same,Activity,Rattus norvegicus [13],147.25 mmHg
same,Activity,Rattus norvegicus [14],412.14 bpm
same,Activity,Rattus norvegicus [15],148.13 mmHg
same,Activity,Rattus norvegicus [16],129.85 mmHg
same,Activity,Rattus norvegicus [17],135.94 mmHg
same,Activity,Rattus norvegicus [18],406.12 bpm
same,Activity,Rattus norvegicus [19],153.65 mmHg
same,Activity,Rattus norvegicus [20],134.31 mmHg
same,Activity,Rattus norvegicus [21],140.76 mmHg
same,Activity,Rattus norvegicus [22],409.22 bpm
same,Activity,Rattus norvegicus [23],158.22 mmHg
same,Activity,Rattus norvegicus [24],170.5 mmHg
same,Activity,Rattus norvegicus [25],143.06 mmHg
same,Activity,Rattus norvegicus [26],152.21 mmHg
same,Activity,Rattus norvegicus [27],417.25 bpm
same,Activity,Rattus norvegicus [28],16.1%
COc1cc2c(cc1OCC(O)CN1CCN(c3ccccc3OC)CC1)C(=O)C(C)OC2 (stereo not drawn),inhibition at 10 µM,Thoracic aorta [1],23.1%
same,inhibition at 100 µM,Thoracic aorta [2],44.6%
CCOc1ccccc1N1CCN(CC(O)COc2c(OC)ccc3c2COC(C)C3=O)CC1 (stereo not drawn),inhibition at 10 µM,Thoracic aorta [1],23.1%
same,inhibition at 100 µM,Thoracic aorta [2],36.1%
CCOc1ccccc1N1CCN(CC(O)COc2cc3c(cc2OC)COC(C)C3=O)CC1 (stereo not drawn),inhibition at 10 µM,Thoracic aorta [1],25.4%
same,inhibition at 100 µM,Thoracic aorta [2],55.3%
same,Kb,[3],485 nM
COc1cc2c(cc1OCC(O)CN1CCN(c3ccccc3)CC1)COC(C)C2=O (stereo not drawn),inhibition at 10 µM,Thoracic aorta [1],39.2%
same,inhibition at 100 µM,Thoracic aorta [2],48.1%
same,Kb,[3],621 nM
COc1ccc2c(c1OCC(O)CN1CCN(c3ccccc3Cl)CC1)COC(C)C2=O (stereo not drawn),inhibition at 10 µM,Thoracic aorta [1],18.2%
same,inhibition at 100 µM,Thoracic aorta [2],29.1%
COc1cc2c(cc1OCC(O)CN1CCN(c3ccccc3Cl)CC1)COC(C)C2=O (stereo not drawn),inhibition at 10 µM,Thoracic aorta [1],27%
same,inhibition at 100 µM,Thoracic aorta [2],32.4%
COc1cc2c(cc1OCC(O)CN1CCN(C(=O)c3ccco3)CC1)C(=O)C(C)OC2 (stereo not drawn),inhibition at 10 µM,Thoracic aorta [1],33.4%
same,inhibition at 100 µM,Thoracic aorta [2],44.9%
same,Kb,[3],1550 nM
COc1ccc2c(c1OCC(O)CN1CCN(C(=O)c3ccco3)CC1)COC(C)C2=O (stereo not drawn),inhibition at 10 µM,Thoracic aorta [1],20.8%
same,inhibition at 100 µM,Thoracic aorta [2],31.9%
COc1cc2c(cc1OCC(O)CN1CCN(c3ccccc3Cl)CC1)C(=O)C(C)OC2 (stereo not drawn),inhibition at 10 µM,Thoracic aorta [1],30.2%
same,inhibition at 100 µM,Thoracic aorta [2],42.4%
COc1cc2c(cc1OCC(O)CN1CCN(c3ccccc3)CC1)C(=O)C(C)OC2 (stereo not drawn),inhibition at 10 µM,Thoracic aorta [1],28.6%
same,inhibition at 100 µM,Thoracic aorta [2],46.4%
COc1cc2c(cc1OCC(O)CN1CCN(C(=O)C3CCCO3)CC1)COC(C)C2=O (stereo not drawn),inhibition at 10 µM,Thoracic aorta [1],33.9%
same,inhibition at 100 µM,Thoracic aorta [2],40.1%
